Experimental data published in US20240174690A1, “ANNULATED 2-AMINO-3-CYANO THIOPHENES AND DERIVATIVES FOR THE TREATMENT OF CANCER” (BOEHRINGER INGELHEIM INTERNATIONAL GMBH, priority 2021, published 2024).

Experiments:
KRAS (G13D)::SOS1 = KRAS (G13D)::SOS1 (Homo sapiens (Human), UniProt P01116, C118S/G13D); test: KRAS::SOS1 AlphaScreen binding assay, KRAS G13D
Source text: (§1) This assay can be used to examine the potency with which compounds according to the invention binding to (mutated) KRAS inhibit the protein-protein interaction between SOS1 and (mutated) KRAS e.g., KRAS WT, KRAS G12C, KRAS G12D, KRAS G12V, KRAS G13D. […] Low IC50 values in this assay setting are indicative of strong inhibition of protein-protein interaction between SOS1 and KRAS:
(§2) These assays measure the inhibitory effect of compounds on KRAS mutant protein-protein interactions using the Alpha Screen technology by Perkin Elmer.
(§3) The following (mutant) enzyme forms of KRAS and interacting proteins are used in these assays at the given concentrations: • KRAS (G12D) 1-169, N-terminal 6His-tag, C-terminal avi-tag (Xtal BioStructures, Inc.); final assay concentration 10 nM and SOS1 564-1049, N-terminal 229 GST-tag, TEV cleavage site (Viva Biotech Ltd); final assay concentration 5 nM; • KRAS (G12C) 1-169, N-terminal 6His-tag for purification, cleaved off, C-terminal avi-tag, biotinylated, mutations: C51S, C80L, C118S (in house); final assay concentration 7.5 nM and SOS1 564-1049, N-terminal 229 GST-tag, TEV cleavage site (Viva Biotech Ltd); final assay concentration 5 nM; • KRAS (G12V) 1-169, N-terminal 6His-tag for purification, cleaved off, C-terminal avi-tag, biotinylated, TEV cleavage site, mutation: C118S, GDP loaded (in house); final assay concentration 10 nM and SOS1 564-1049, N-terminal 229 GST-tag, TEV cleavage site (Viva Biotech Ltd); final assay concentration 10 nM; • KRAS (G13D) 1-169, N-terminal 6His-tag for purification, cleaved off, C-terminal avi-tag, biotinylated, TEV cleavage site, mutation: C118S, GDP loaded (in house); final assay concentration 10 nM and SOS1 564-1049, N-terminal 229 GST-tag, TEV cleavage site (Viva Biotech Ltd); final assay concentration 10 nM; • KRAS (WT) 1-169, N-terminal 6His-tag for purification, cleaved off, C-terminal avi-tag, biotinylated, TEV cleavage site, mutation: C118S, GDP loaded (in house); final assay concentration 10 nM and SOS1 564-1049, N-terminal 229 GST-tag, TEV cleavage site (Viva Biotech Ltd); final assay concentration 10 nM.
(§4) Test compounds dissolved in DMSO are dispensed onto assay plates (Proxiplate 384 PLUS, white, PerkinElmer; 6008289) using an Access Labcyte Workstation with the Labcyte Echo 55×. For the chosen highest assay concentration of 100 μM, 150 nL of compound solution are transferred from a 10 mM DMSO compound stock solution. A series of eleven fivefold dilutions per compound are transferred to the assay plate, compound dilutions are tested in duplicates. DMSO are added as backfill to a total volume of 150 nL.
(§5) The assays run on a fully automated robotic system in a darkened room below 100 Lux. To 150 nl of compound dilution 10 μl of a mix including KRAS mutant protein, SOS1 (final assay concentrations see above) and GDP nucleotide (Sigma G7127; final assay concentration 10 μM) in assay buffer (1×PBS, 0.1% BSA, 0.05% Tween 20) are added into columns 1-24.
(§6) After 30 minutes incubation time 5 μl of Alpha Screen bead mix in assay buffer are added into columns 1-23. Bead mix consists of AlphaLISA Glutathione Acceptor Beads (PerkinElmer, Cat No AL109) and AlphaScreen Streptavidin Donor Beads (PerkinElmer Cat No 6760002) in assay buffer at a final assay concentration of 10 μg/ml each.
(§7) Plates are kept at room temperature in a darkened incubator. After an additional 60 minutes incubation time the signal is measured in a PerkinElmer Envision HTS Multilabel Reader using the AlphaScreen specs from PerkinElmer.
(§8) Each plate contains up to 16 wells of a negative control depending on the dilution procedure (platewise or serial) (DMSO instead of test compound; with KRAS mutant::SOS1 GDP mix and bead mix; column 23) and 16 wells of a positive control (DMSO instead of test compound; with KRAS mutant::SOS1 GDP mix w/o bead mix; column 24).
(§9) As internal control known inhibitors of KRAS mutant::SOS1 interaction can be measured on each compound plate. […]

KRAS (G12V)::SOS1 = KRAS (G12V)::SOS1 (Homo sapiens (Human), UniProt P01116, C118S/G12V); test: KRAS::SOS1 AlphaScreen binding assay, KRAS G12V
Sequence of KRAS (G12V)::SOS1 (P01116 other isoform, or with tags, fused parts or gaps G12V/C118S): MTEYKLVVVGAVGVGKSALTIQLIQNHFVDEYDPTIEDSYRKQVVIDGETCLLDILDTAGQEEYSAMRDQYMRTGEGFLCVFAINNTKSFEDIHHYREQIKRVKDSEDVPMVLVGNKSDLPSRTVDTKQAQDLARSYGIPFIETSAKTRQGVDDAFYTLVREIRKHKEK
Source text: as §1, §2, §3, §4, §5, §6, §7, §8, §9

CYP3A4 = CYP3A4 (Homo sapiens (Human), UniProt P08684); test: Mechanism based inhibition of CYP3A4 assay (MBI 3A4); format: in vitro ADME; conditions: hydroxy-midazolam formation after 30 min vs 0 min preincubation, 25 uM, human liver microsomes
Sequence of CYP3A4 (P08684 whole entry): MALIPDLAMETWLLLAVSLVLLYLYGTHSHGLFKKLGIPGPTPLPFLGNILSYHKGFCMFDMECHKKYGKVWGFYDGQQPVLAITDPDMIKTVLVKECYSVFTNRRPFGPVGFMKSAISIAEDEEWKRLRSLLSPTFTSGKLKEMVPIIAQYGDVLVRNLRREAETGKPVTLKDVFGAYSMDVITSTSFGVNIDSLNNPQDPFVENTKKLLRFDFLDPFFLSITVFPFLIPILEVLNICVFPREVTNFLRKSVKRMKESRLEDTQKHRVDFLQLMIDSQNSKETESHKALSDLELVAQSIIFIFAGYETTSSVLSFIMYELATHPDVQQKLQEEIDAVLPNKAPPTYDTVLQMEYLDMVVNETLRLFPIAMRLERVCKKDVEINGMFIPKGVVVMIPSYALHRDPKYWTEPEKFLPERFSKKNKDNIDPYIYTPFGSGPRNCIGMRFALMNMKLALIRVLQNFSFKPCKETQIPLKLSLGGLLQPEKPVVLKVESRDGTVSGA
Summary of the method: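 Human CYP3A4 activity after 30 min vs 0 min preincubation with test compound; incubate then diluted 1:10 and midazolam added for a 15 min main incubation. Quenched with acetonitrile; hydroxy-midazolam quantified by LC/MS-MS and expressed as % of the 0 min preincubation formation.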

A375 cells = test: A375 CTG proliferation assay (120 h) (melanoma, wt, B-Raf mutant, negative control); format: cell-based; conditions: Homo sapiens, A-375, CTG 120 h
Experimental: A375 CTG Proliferation Assay (120 h) (Melanoma, Wt, B-Raf Mutant, Negative Control)
A375 cells (ATCC CRL-1619) are dispensed into 384-well plates, flat and clear bottom (Greiner, PNr. 781091) at a density of 300 cells per well in 60 μL DMEM (Sigma 06429)+10% Fetal Calf Serum (HyClone, PNr.: SH30084.03) and incubated at 37° C. in a CO2 incubator overnight. The next day, compounds (10 mM stock in DMSO) are added at logarithmic dose series using the HP Digital Dispenser D300 (Tecan), including DMSO controls. Plates are incubated for 120 h, and cell viability is measured using CellTiter-Glo luminescent cell viability reagent (Promega product code G7570). Viability (stated as percent of control) is defined as relative luminescence units RLU of each well divided by the RLU of cells in DMSO controls. IC50 values are determined from viability measurements by non-linear regression using a four-parameter model.

Sequence of KRAS (G13D)::SOS1 (P01116 other isoform, or with tags, fused parts or gaps G13D/C118S): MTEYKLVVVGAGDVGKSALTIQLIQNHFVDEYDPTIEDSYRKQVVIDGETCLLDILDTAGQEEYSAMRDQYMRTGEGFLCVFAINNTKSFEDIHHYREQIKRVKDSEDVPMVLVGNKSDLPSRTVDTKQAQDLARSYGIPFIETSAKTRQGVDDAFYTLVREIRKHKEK

Row | Compound | IC50 (KRAS (G13D)::SOS1) | IC50 (KRAS (G12V)::SOS1) | MBI 3A4 (CYP3A4) | also measured
1 | CC(C)NC(=O)Cc1ccn(-c2cc(O[C@@H](C)[C@@H]3CCCN3C)nc(-c3noc4c3CCC[C@@]43CCCc4sc(N)c(C#N)c43)n2)n1 [II-182] | 8 nM |  |  | 
2 | COCCNC(=O)c1ccn(-c2cc(O[C@@H](C)[C@@H]3CCCN3C)nc(-c3noc4c3CCC[C@@]43CCCc4sc(N)c(C#N)c43)n2)n1 [II-195] | 7 nM | 1 nM | 56% | 
3 | C[C@H](Oc1cc(N2CCNC[C@@]23CCOC3)nc(-c2onc3c2CCC[C@@]32CCCc3sc(N)c(C#N)c32)n1)[C@@H]1CCCN1C [I-13] |  |  | 48% | 
4 | C[C@H](Oc1cc(N2CCN[C@@H](C)C2)nc(-c2noc3c2CCC[C@@]32CCCc3sc(N)c(C#N)c32)n1)[C@@H]1CCCN1C [II-162] |  |  | 84% | 
5 | C[C@H](Oc1cc(-n2cncn2)nc(-c2onc3c2CCC[C@@]32CCCc3sc(N)c(C#N)c32)n1)[C@@H]1CCCN1C [I-18] |  |  | 58% | 
6 | C[C@H](Oc1cc(N2CCOC2=O)nc(-c2noc3c2CCC[C@@]32CCCc3sc(N)c(C#N)c32)n1)[C@@H]1CCCN1C [II-143] |  |  |  | IC50 (A375 cells): > 3000 nM
7 | C[C@H](Oc1cc(N2CCN(C)C3(CC3)C2)nc(-c2noc3c2CCC[C@@]32CCCc3sc(N)c(C#N)c32)n1)[C@@H]1CCCN1C [II-171] | 64 nM | 50 nM | 63% | 
8 | C[C@H](Oc1cc(-n2cc(C(=O)N(C)C)nn2)nc(-c2noc3c2CCC[C@@]32CCCc3sc(N)c(C#N)c32)n1)[C@@H]1CCCN1C [II-132] |  |  | 70% | 
9 | C[C@H](Oc1cc(-n2cc3c(n2)CCN(C)C3)nc(-c2noc3c2CCC[C@@]32CCCc3sc(N)c(C#N)c32)n1)[C@@H]1CCCN1C [II-141] |  |  | 88% | 
10 | C[C@H](Oc1cc(-n2ccc(C3(O)COC3)n2)nc(-c2noc3c2CCC[C@@]32CCCc3sc(N)c(C#N)c32)n1)[C@@H]1CCCN1C [II-189] |  | 3 nM |  | 
11 | C[C@H](Oc1cc(-n2cncc3ccnc2-3)nc(-c2onc3c2CCC[C@@]32CCCc3sc(N)c(C#N)c32)n1)[C@@H]1CCCN1C [I-14] |  |  | 83% | 
12 | CO[C@H]1CCN(C)[C@@H]1[C@H](C)Oc1cc(-n2ccc(C(N)=O)n2)nc(-c2noc3c2CCC[C@@]32CCCc3sc(N)c(C#N)c32)n1 [II-201] | 27 nM |  |  | 
13 | C[C@H](Oc1cc(N2CCNC[C@]23CCOC3)nc(-c2onc3c2CCC[C@@]32CCCc3sc(N)c(C#N)c32)n1)[C@@H]1CCCN1C [I-12] |  |  | 56% | 
14 | C[C@H](Oc1cc(N2CCNC3(CC3)C2)nc(-c2noc3c2CCC[C@@]32CCCc3sc(N)c(C#N)c32)n1)[C@@H]1C[C@@H](F)CN1C [II-165] | 48 nM | 15 nM |  | 
15 | CO[C@H]1CCN(C)[C@@H]1[C@H](C)Oc1cc(-n2ccc(C(=O)N[C@@H](C)c3ccccn3)n2)nc(-c2noc3c2CCC[C@@]32CCCc3sc(N)c(C#N)c32)n1 [II-196] |  | 2 nM |  | 
16 | C[C@H](Oc1cc(N2CCN(C)C3(COC3)C2)nc(-c2noc3c2CCC[C@@]32CCCc3sc(N)c(C#N)c32)n1)[C@@H]1C[C@@H](F)CN1C [II-148] |  | 3 nM | 55% | 
